Like-named read-outs stand apart in the source and are kept apart here.
Key:
rats [1] = test: Pharmacological characteristics at equivalent doses (2×ED50) in rats; settings: 2×ED50, tail vein
Method in brief: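 Adult male Sprague-Dawley rats (250-300 g, n=8) received each drug at twice its ED50 via tail vein (0.6 mL at 0.1 mL/s). Onset of anesthesia taken as time to LORR.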

rats [2] = assay type: in vivo, rat; settings: rats of the MAP/HR figures, 2×ED50, tail vein
rats [3] = assay type: in vivo, rat; settings: rats of the MAP/HR figures, 2×ED50, tail vein; same value in min
Method in brief: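 Rats implanted with telemetry (left ventricular and abdominal aortic catheters, ECG leads) at least one week before recording; compounds given via lateral tail-vein catheter. MAP and HR sampled every 15 s for 30 min before and after dosing to judge hemodynamic stability.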

rats [4] = settings: continuous tail vein infusion at 2×MIR, LORR maintained 1 hour, Table E4
Method: Pharmacological Effects of the Compounds on Continuous Infusion in Rats
Adult male Sprague-Dawley rats with body weight ranging from 250 to 300 gm were selected for continuous infusion test. […] Time to recovery of righting reflex from stopping infusion, and time to fully awake from stopping infusion were recorded.

rats [5] = test: Loss of righting reflexes (LORR) assay in rats, ED50 by up and down method; assay type: in vivo, rat; settings: tail vein, class symbols
Method in brief: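 Adult male Sprague-Dawley rats (250-300 g) dosed i.v. via tail vein at 0.1 mL/s. Anesthesia scored as loss of righting reflex lasting >30 s; ED50 derived by up-and-down method.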

rats [6] = test system: rats
Method: Adult male Sprague-Dawley rats (250-300 g) were selected for the experiment. […] The anesthesia effects of the compounds were assessed in rats using a LORR assay and a period >30 s was considered as an indicator of general anesthesia. Then the up and down method was used to determine 50% effective dose (ED50). The drugs were administered through the tail vein of rats in a volume of 0.6 mL and at a rate of 0.1 mL/s.

[7] = test system: secretion of cortisol, H295R cell line; test: cells; assay type: cell-based; settings: for EC50: read-out: EC50 (Cortisol)
Method: (§1) The Effects of the Compounds on Adrenocortical Function In Vitro Test
(§2) Then secretion of the cortisol and corticosterone in the supernatant, was measured using HPLC-MS/MS method to determine whether the compounds of the present invention had adrenotoxic potential.

[8] = test system: secretion of corticosterone, H295R cell line; test: cells; assay type: cell-based; settings: for EC50: read-out: EC50 (Corticosterone)
Method: as §1, §2

11-β-hydroxylase = biological target: T1, 11-β-hydroxylase (Rattus norvegicus, UniProt P15393); settings: compared with etomidate; cited from earlier work
T1 sequence (P15393 25-499): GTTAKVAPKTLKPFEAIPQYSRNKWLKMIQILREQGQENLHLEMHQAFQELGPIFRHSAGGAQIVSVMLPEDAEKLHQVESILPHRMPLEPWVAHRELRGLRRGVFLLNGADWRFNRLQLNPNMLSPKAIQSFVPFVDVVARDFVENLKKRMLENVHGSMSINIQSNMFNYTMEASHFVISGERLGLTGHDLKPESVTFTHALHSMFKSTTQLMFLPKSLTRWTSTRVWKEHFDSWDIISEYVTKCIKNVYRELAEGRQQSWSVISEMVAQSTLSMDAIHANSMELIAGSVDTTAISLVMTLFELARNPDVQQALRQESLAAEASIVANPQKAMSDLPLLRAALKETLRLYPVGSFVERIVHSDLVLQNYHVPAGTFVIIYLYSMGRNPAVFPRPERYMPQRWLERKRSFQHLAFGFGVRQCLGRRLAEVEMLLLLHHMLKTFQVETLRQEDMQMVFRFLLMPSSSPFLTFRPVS

[9] = H295R cell line, 0.1-10000 nM, HPLC-MS/MS, Table E3
[10] = H295R cell line, 0.1-10000 nM, HPLC-MS/MS, Table D3
[11] = H295R, 0.1-10000 nM, HPLC-MS/MS

C[C@H](c1ccccc1)n1cnc(F)c1C(=O)OC1(C)COC1 [Compound E38]
Righting reflex duration (rats [1]): 1.96 ± 1.39 min
Sedation duration (mg/kg) (rats [1]): 4.96 ± 1.66
Adverse reactions: Red urine (incidence) (rats [1]; DMSO solution (DMSO alone 10/10)): (8/8)
Onset time (rats [1]; time of LORR): 0.25 ± 0.13 min
recovery time of the test animals' righting reflex (rats [2]): 122 s
recovery time of the test animals' righting reflex (rats [3]): 2.03 min
Onset time (rats [4]): 2 to 3 min
Recovery time after stopping infusion (rats [4]): 8 to 13 min
Types and incidence of adverse reactions (rats [4]): Tremor (3/6)
ED50 (mg/kg) (rats [5]): B (B means that the measured ED50 is in the range of 0.10-0.50 mg/kg (excluding 0.10 mg/kg, including 0.50 mg/kg).)
Approximate therapeutic index (rats [6]): >20
Minimal lethal dose (rats [6]): >7 mg/kg
Cortisol as an indicator to determine the presence of inhibition [7, 9]: 0
EC50 [7, 9]: > 10 µM
Corticosterone as an indicator to determine the presence of inhibition [8, 9]: 0
EC50 [8, 9]: > 10 µM

C[C@H](c1ccccc1)n1cncc1C(=O)O [Etomidate acid, etomidate acid, reference compound]
inhibitory effect on 11-β-hydroxylase (11-β-hydroxylase): little inhibitory effect
Cortisol as an indicator to determine the presence of inhibition [7, 10]: 0
EC50 [7, 10]: > 10 µM
Cortisol as an indicator to determine the presence of inhibition [7, 9]: 0
EC50 [7, 9]: > 10 µM
EC50 [7, 11]: > 10 µM
Cortisol as an indicator to determine the presence of inhibition ([7]; H295R, Table A3): 0
Cortisol as an indicator to determine the presence of inhibition ([7]; H295R, Table B3): 0
Cortisol as an indicator to determine the presence of inhibition ([7]; H295R, Table C3): 0
Corticosterone as an indicator to determine the presence of inhibition [8, 10]: 0
EC50 [8, 10]: > 10 µM
Corticosterone as an indicator to determine the presence of inhibition [8, 9]: 0
EC50 [8, 9]: > 10 µM
EC50 [8, 11]: > 10 µM
Corticosterone as an indicator to determine the presence of inhibition ([8]; H295R, Table A3): 0
Corticosterone as an indicator to determine the presence of inhibition ([8]; H295R, Table B3): 0
Corticosterone as an indicator to determine the presence of inhibition ([8]; H295R, Table C3): 0

— patent US11434205B2, “Substituted imidazole carboxylate derivatives and the use thereof” (priority 2018, dated 2022)
